According to ChEMBL document CHEMBL3822432, “Antibacterial and anticancer activity of a series of novel peptides incorporating cyclic tetra-substituted C(α) amino acids” (Bioorg Med Chem, 2016):
In brackets after ≈: the same amount, converted by molar mass. Non-standard residues stand in square brackets, D forms with d. Residues, ends and D or L forms follow the SMILES beside them. ξ: configuration not given here. Ac6c = NC1(C(=O)O)CCCCC1; Ac5c = NC1(C(=O)O)CCCC1; ξOrn = NCCCC(N)C(=O)O; ξDab = NCCC(N)C(=O)O

Key:
Klebsiella aerogenes = assay: Antibacterial activity against carbapenem-resistant Enterobacter aerogenes NCDC819-56 ATCC 13048 by two fold serial dilution method; type: functional
Acinetobacter baumannii = assay: Antibacterial activity against Acinetobacter baumannii B5W71 ATCC 15149 by two fold serial dilution method; type: functional
[1] = Antibacterial activity against Salmonella enterica LT2 Typhimurium ATCC 15277 by two fold serial dilution method; type: functional
Pseudomonas aeruginosa = assay: Antibacterial activity against Pseudomonas aeruginosa Boston 41501 ATCC 27853 by two fold serial dilution method; type: functional
[2] = Antibacterial activity against carbapenem-resistant Klebsiella pneumoniae K6 ATCC 700603 by two fold serial dilution method; type: functional, Klebsiella pneumoniae 700603
Enterococcus faecalis = assay: Antibacterial activity against Enterococcus faecalis Portland ATCC 29212 by two fold serial dilution method; type: functional; details: ATCC 29212 Portland
Staphylococcus aureus [3] = assay: Antibacterial activity against methicillin-resistant Staphylococcus aureus USA 300 NRS 384 by two fold serial dilution method; type: functional
[4] = Antibacterial activity against Clostridium difficile VIP 10463 ATCC 43255 by two fold serial dilution method; type: functional, Clostridium difficile ATCC 43255; details: Clostridioides difficile
Staphylococcus aureus [5] = assay: Antibacterial activity against Staphylococcus aureus Seattle 1945 ATCC 25923 by two fold serial dilution method; type: functional
Streptococcus pneumoniae = assay: Antibacterial activity against Streptococcus pneumoniae 262 ATCC 49619 by two fold serial dilution method; type: functional
Neisseria gonorrhoeae = assay: Antibacterial activity against Neisseria gonorrhoeae F-18 ATCC 49226 by two fold serial dilution method; type: functional
[6] = Antibacterial activity against Bacillus anthracis Ames NR-3838 by two fold serial dilution method; type: functional, Bacillus anthracis str. Ames
[7] = Antibacterial activity against Francisella tularensis SCHU S4 NR-643 by two fold serial dilution method; type: functional
[8] = Antibacterial activity against Yersinia pestis CO92 NR641 by two fold serial dilution method; type: functional
[9] = test system: Burkholderia pseudomallei; assay: Antibacterial activity against Burkholderia pseudomallei AHS 1 NCTC 8016 by two fold serial dilution method; type: functional
[10] = test system: Mycobacterium tuberculosis; assay: Antibacterial activity against Mycobacterium tuberculosis H37Ra ATCC 2517 by two fold serial dilution method; type: functional
CFPAC-1 = assay: Antiproliferative activity against human CFPAC-1 cells after 72 hrs by Celltiter-Glo luminescent cell viability assay; type: functional, cell-based; details: CFPAC-1, 72 h
MCF7 = assay: Antiproliferative activity against human MCF7 cells after 72 hrs by Celltiter-Glo luminescent cell viability assay; type: functional, cell-based; details: MCF7, 72 h
[11] = Antiproliferative activity against human IGROV1 cells after 72 hrs by Celltiter-Glo luminescent cell viability assay; type: functional, cell-based; details: IGROV-1, 72 h
[12] = Antiproliferative activity against human COLO205 cells after 72 hrs by Celltiter-Glo luminescent cell viability assay; type: functional, cell-based; details: COLO 205, 72 h
[13] = Antiproliferative activity against human DLD1 cells after 72 hrs by Celltiter-Glo luminescent cell viability assay; type: functional, cell-based; details: DLD-1, 72 h
[14] = Antiproliferative activity against human UACC62 cells after 72 hrs by Celltiter-Glo luminescent cell viability assay; type: functional, cell-based; details: UACC-62, 72 h
[15] = Antiproliferative activity against human MIAPaCa2 cells after 72 hrs by Celltiter-Glo luminescent cell viability assay; type: functional, cell-based; details: MIA PaCa-2, 72 h
A498 = assay: Antiproliferative activity against human A498 cells after 72 hrs by Celltiter-Glo luminescent cell viability assay; type: functional, cell-based; details: A498, 72 h
[16] = Antiproliferative activity against human PC3 cells after 72 hrs by Celltiter-Glo luminescent cell viability assay; type: functional, cell-based; details: PC-3, 72 h
A549 = assay: Antiproliferative activity against human A549 cells after 72 hrs by Celltiter-Glo luminescent cell viability assay; type: functional, cell-based; details: A549, 72 h
NCI-H69 = assay: Antiproliferative activity against human NCI-H69 cells after 72 hrs by Celltiter-Glo luminescent cell viability assay; type: functional, cell-based; details: NCI-H69, 72 h
RL = assay: Antiproliferative activity against human RL cells after 72 hrs by Celltiter-Glo luminescent cell viability assay; type: functional, cell-based

Row | SMILES | MIC (Klebsiella aerogenes) [µM] | MIC (Acinetobacter baumannii) [µM] | MIC [1] [µM] | MIC (Pseudomonas aeruginosa) [µM] | MIC [2] [µM] | MIC (Enterococcus faecalis) [µM] | MIC (Staphylococcus aureus [3]) [µM] | MIC [4] [µM] | MIC (Staphylococcus aureus [5]) [µM] | MIC (Streptococcus pneumoniae) [µM] | MIC (Neisseria gonorrhoeae) [µM] | MIC [6] [µM] | MIC [7] [µM] | MIC [8] [µM] | MIC [9] [µM] | MIC [10] [µM] | IC50 (CFPAC-1) [µM] | IC50 (MCF7) [µM] | IC50 [11] [µM] | IC50 [12] [µM] | other results
1 | CC(=O)NCC(=O)N[C@@H](Cc1ccccc1)C(=O)NC1(C(=O)NCC(=O)NC2(C(=O)NC(CCN)C(=O)NC3(C(=O)NCC(=O)NC4(C(=O)N[C@@H](Cc5ccccc5)C(=O)NC5(C(=O)NCC(=O)NC6(C(=O)NCC(=O)NC(CCN)C(=O)NC7(C(=O)NC(CCN)C(=O)NC(CCN)C(=O)NC(CCN)C(=O)NC(CCN)C(N)=O)CCCCC7)CCCCC6)CCCCC5)CCCCC4)CCCCC3)CCCCC2)CCCCC1 (stereo not given in full) (Ac-GF[Ac6c]G[Ac6c][ξDab][Ac6c]G[Ac6c]F[Ac6c]G[Ac6c]G[ξDab][Ac6c][ξDab][ξDab][ξDab][ξDab]-NH2) | 2.97 (≈ 6.28 µg/mL) | 1.48 (≈ 3.13 µg/mL) | 1.48 (≈ 3.13 µg/mL) | 1.48 (≈ 3.13 µg/mL) | 2.96 (≈ 6.26 µg/mL) | 2.96 (≈ 6.26 µg/mL) | 5.91 (≈ 12.5 µg/mL) | 2.96 (≈ 6.26 µg/mL) | 2.96 (≈ 6.26 µg/mL) | 47.3 (≈ 100 µg/mL) | 1.48 (≈ 3.13 µg/mL) | 2.96 (≈ 6.26 µg/mL) | 23.6 (≈ 50 µg/mL) | > 47 | > 47 | 11.8 (≈ 25 µg/mL) | 2.7 | 3 | 2.3 | 6.4 | IC50 [13]: 2.6 µM; IC50 [14]: 1.9 µM; IC50 [15]: 4.4 µM; IC50 (A498): 2.1 µM; IC50 [16]: 6.5 µM; IC50 (A549): 2.4 µM; IC50 (NCI-H69): 1500 nM; IC50 (RL): 1.7 µM
2 | CC(=O)N[C@@H](CCCCN)C(=O)N[C@@H](CCCCN)C(=O)N[C@@H](CCCCN)C(=O)N[C@@H](CCCCN)C(=O)NCC(=O)N[C@@H](Cc1ccccc1)C(=O)NC1(C(=O)NCC(=O)NC2(C(=O)N[C@@H](CCCCN)C(=O)NC3(C(=O)NCC(=O)NC4(C(=O)N[C@@H](Cc5ccccc5)C(=O)NC5(C(=O)NCC(=O)NC6(C(=O)NCC(=O)N[C@@H](CCCCN)C(=O)NC7(C(N)=O)CCCCC7)CCCCC6)CCCCC5)CCCCC4)CCCCC3)CCCCC2)CCCCC1 (Ac-KKKKGF[Ac6c]G[Ac6c]K[Ac6c]G[Ac6c]F[Ac6c]G[Ac6c]GK[Ac6c]-NH2) | 43.8 (≈ 99.9 µg/mL) | 2.73 (≈ 6.24 µg/mL) | 5.47 (≈ 12.5 µg/mL) | 1.37 (≈ 3.13 µg/mL) | 43.8 (≈ 99.9 µg/mL) | 21.9 (≈ 49.9 µg/mL) | 43.8 (≈ 99.9 µg/mL) | 1.37 (≈ 3.13 µg/mL) | 10.9 (≈ 25 µg/mL) | 21.9 (≈ 49.9 µg/mL) | 2.73 (≈ 6.24 µg/mL) | 1.37 (≈ 3.13 µg/mL) | 21.9 (≈ 49.9 µg/mL) | > 44 | > 44 | 21.9 (≈ 49.9 µg/mL) | > 7.5 | 7.3 | > 7.5 | 6.7 | IC50 [13]: > 7.5 µM; IC50 [14]: 6.4 µM; IC50 [15]: > 7.5 µM; IC50 (A498): 4.2 µM; IC50 [16]: > 7.5 µM; IC50 (A549): 7.2 µM; IC50 (NCI-H69): 2200 nM; IC50 (RL): 3.7 µM
3 | CC(=O)NCC(=O)N[C@@H](Cc1ccccc1)C(=O)NC1(C(=O)NCC(=O)NC2(C(=O)N[C@@H](CCCCN)C(=O)NC3(C(=O)NCC(=O)NC4(C(=O)N[C@@H](Cc5ccccc5)C(=O)NC5(C(=O)NCC(=O)NC6(C(=O)NCC(=O)N[C@@H](CCCCN)C(=O)NC7(C(=O)N[C@@H](CCCCN)C(=O)N[C@@H](CCCCN)C(=O)N[C@@H](CCCCN)C(=O)N[C@@H](CCCCN)C(N)=O)CCCC7)CCCCC6)CCCC5)CCCCC4)CCCC3)CCCCC2)CCCC1 (Ac-GF[Ac5c]G[Ac6c]K[Ac5c]G[Ac6c]F[Ac5c]G[Ac6c]GK[Ac5c]KKKK-NH2) | > 45 | > 45 | 11.2 (≈ 25 µg/mL) | 5.61 (≈ 12.5 µg/mL) | 44.8 (≈ 99.9 µg/mL) | > 45 | > 45 | 1.4 (≈ 3.12 µg/mL) | 44.5 (≈ 99.1 µg/mL) | > 45 | 11.2 (≈ 25 µg/mL) | 22.4 (≈ 49.9 µg/mL) | 22.4 (≈ 49.9 µg/mL) | > 45 | > 45 | 22.4 (≈ 49.9 µg/mL) | > 7.5 | > 7.5 | > 7.5 | > 7.5 | IC50 [13]: > 7.5 µM; IC50 [14]: > 7.5 µM; IC50 [15]: > 7.5 µM; IC50 (A498): > 7.5 µM; IC50 [16]: > 7.5 µM; IC50 (A549): > 7.5 µM; IC50 (NCI-H69): 5900 nM; IC50 (RL): 6.7 µM
4 | CC(=O)NCC(=O)N[C@@H](Cc1ccccc1)C(=O)NC1(C(=O)NCC(=O)NC2(C(=O)NC(CCCN)C(=O)NC3(C(=O)NCC(=O)NC4(C(=O)N[C@@H](Cc5ccccc5)C(=O)NC5(C(=O)NCC(=O)NC6(C(=O)NCC(=O)NC(CCCN)C(=O)NC7(C(=O)NC(CCCN)C(=O)NC(CCCN)C(=O)NC(CCCN)C(=O)NC(CCCN)C(N)=O)CCCCC7)CCCCC6)CCCCC5)CCCCC4)CCCCC3)CCCCC2)CCCCC1 (stereo not given in full) (Ac-GF[Ac6c]G[Ac6c][ξOrn][Ac6c]G[Ac6c]F[Ac6c]G[Ac6c]G[ξOrn][Ac6c][ξOrn][ξOrn][ξOrn][ξOrn]-NH2) | 22.8 (≈ 50 µg/mL) | 2.84 (≈ 6.25 µg/mL) | 2.84 (≈ 6.25 µg/mL) | 1.42 (≈ 3.12 µg/mL) | 22.8 (≈ 50 µg/mL) | 11.4 (≈ 25 µg/mL) | 22.8 (≈ 50 µg/mL) | 5.67 (≈ 12.5 µg/mL) | 5.67 (≈ 12.5 µg/mL) | 45.5 (≈ 100 µg/mL) | 2.84 (≈ 6.25 µg/mL) | 2.84 (≈ 6.25 µg/mL) | 45.5 (≈ 100 µg/mL) | > 45 | > 45 | 11.4 (≈ 25 µg/mL) | 5.9 | 4.6 | 5.4 | 3.2 | IC50 [13]: 6.2 µM; IC50 [14]: 3.1 µM; IC50 [15]: 3.6 µM; IC50 (A498): 4.7 µM; IC50 [16]: 7.5 µM; IC50 (A549): 6.5 µM; IC50 (NCI-H69): 1700 nM; IC50 (RL): 2.5 µM
5 | CC(=O)NCC(=O)N[C@@H](Cc1ccccc1)C(=O)NC1(C(=O)NCC(=O)NC2(C(=O)N[C@@H](CCCCN)C(=O)NC3(C(=O)NCC(=O)NC4(C(=O)N[C@@H](Cc5ccccc5)C(=O)NC5(C(=O)NCC(=O)NC6(C(=O)NCC(=O)N[C@@H](CCCCN)C(=O)NC7(C(=O)N[C@@H](CCCCN)C(=O)N[C@@H](CCCCN)C(=O)N[C@@H](CCCCN)C(=O)N[C@@H](CCCCN)C(N)=O)CCCC7)CCCC6)CCCC5)CCCC4)CCCC3)CCCC2)CCCC1 (Ac-GF[Ac5c]G[Ac5c]K[Ac5c]G[Ac5c]F[Ac5c]G[Ac5c]GK[Ac5c]KKKK-NH2) | > 46 | 2.86 (≈ 6.25 µg/mL) | 5.71 (≈ 12.5 µg/mL) | 22.9 (≈ 49.9 µg/mL) | > 46 | > 46 | > 46 | 1.43 (≈ 3.13 µg/mL) | > 46 | > 46 | 22.9 (≈ 50 µg/mL) | > 46 | 22.9 (≈ 50 µg/mL) | > 46 | > 46 | 11.4 (≈ 25 µg/mL) | > 7.5 | > 7.5 | > 7.5 | > 7.5 | IC50 [13]: > 7.5 µM; IC50 [14]: > 7.5 µM; IC50 [15]: > 7.5 µM; IC50 (A498): > 7.5 µM; IC50 [16]: > 7.5 µM; IC50 (A549): > 7.5 µM; IC50 (NCI-H69): > 7500 nM; IC50 (RL): > 7.5 µM
